Ten compounds from patent US20250170100A1, “MONOACYLGLYCEROL LIPASE INHIBITORS AND USE THEREOF FOR THE TREATMENT OF ANXIETY AND RELATED CONDITIONS” (Psy Therapeutics, Inc., priority 2021, published 2025) can be followed below.

Read-outs that look alike come from different tables or passages of the source.

Format in all cases: biochemical
One experiment concerns the target human recombinant FAAH (Homo sapiens (Human), UniProt O00519). The experiment can be described thus: FAAH counter screen (Fatty Acid Amide Hydrolase Inhibitor Screening Assay Kit). The method, then:
MAGL inhibitor compounds were also counter-screened for FAAH inhibition potency using the following assay. Assessment of FAAH inhibition was performed using Fatty Acid Amide Hydrolase Inhibitor Screening Assay Kit (Cayman Item No. 10005196) following manufacture's instruction with some modifications. The kit utilizes human recombinant FAAH and the fluorescent substrate, AMC Arachidonoyl amide (AAMCA). 5 μL of assay buffer (125 mM Tris, pH 9.0, 1 mM EDTA, i.e. ethylenediaminetetraacetic acid) was added to a 384-well black plate (Corning, 3573). Test compounds and control inhibitor JZL-195 (Cayman Chemical, 13668) were tested in 10-concentration IC50 mode with 3-fold serial dilution at a starting concentration of 100 μM and 10 μM, respectively. 300 nL or 30 nL of test compounds were delivered into a 384-well black plate (Corning, 3573) using a Labcyte Echo, followed by addition of 15 μL of FAAH enzyme (Cayman, 700302) in assay buffer. After a 5-minute pre-incubation at room temperature, 10 μL of AAMCA was added in assay buffer to start the reaction. Final concentration of FAAH enzyme is not specified and AAMCA substrate was used at the 20 μM. After these dilutions, the final concentration of the test compounds ranged from 100 μM to 5.08 nM or 10 μM down to 0.508 nM. The reaction was allowed to progress for 60 minutes, while the plate was read on an Envision plate reader at an Ex/Em of 350/460 nm with readings every minute. The data was analyzed in Microsoft Excel, using the slope between 30 and 59 minutes. The average of the no-enzyme wells (background) was subtracted from the data. The background-subtracted slope data was converted to % activity using the average of wells with enzyme and DMSO vehicle. IC50 values were calculated using GraphPad software (Sigmoidal dose response, variable slope equation).
Compounds listed in Table D2 were tested in the FAAH Counterscreen of Example 19

The target of experiment [1] is T1, human MAGL (Homo sapiens (Human), UniProt Q99685). The experiment can be described thus: MAGL inhibition potency assay with 4NPA substrate (methods of Table C). The settings on record: Method 2: Cayman Chemical MAGL enzyme, 10 nM.
Target sequence in this assay (Q99685 2-303): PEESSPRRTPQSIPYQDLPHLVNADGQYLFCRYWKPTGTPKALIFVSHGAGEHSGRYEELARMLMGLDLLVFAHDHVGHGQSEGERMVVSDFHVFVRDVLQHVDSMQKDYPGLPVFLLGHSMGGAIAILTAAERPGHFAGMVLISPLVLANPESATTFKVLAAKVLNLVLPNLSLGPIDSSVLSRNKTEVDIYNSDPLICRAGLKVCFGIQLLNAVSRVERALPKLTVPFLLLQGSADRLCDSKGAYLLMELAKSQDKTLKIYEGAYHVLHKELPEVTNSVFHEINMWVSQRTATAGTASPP
Experiment [2] addresses T1, human MAGL. The experiment can be described thus: MAGL reversible inhibition assay (washout). The note with it: for A: degree to which MAGL enzymatic activity returned following washout: pre-washout compound concentration: 1 μM. The method, then:
The reversible mechanism of MAGL inhibition of a test compound of Formula (I) can be determined. Flag-tagged MAGL enzyme will be immobilized on anti-Flag beads. Immobilized enzyme will be incubated+/−inhibitor at a dose that produces complete inhibition. Colorimetric substrate (4-NPA) will be added and the reaction monitored on a plate reader for 30 minutes to verify complete inhibition. Immobilized enzyme will then be washed thoroughly to remove the inhibitor, and fresh substrate will be added. The reaction will be monitored for an additional 30 minutes; returning enzymatic activity will indicate reversibility of inhibition.
MAGL enzyme was incubated for 30 minutes in the presence of 40× the IC50 concentration of inhibitor. Enzyme+inhibitor mix was then diluted 40-fold so that the final concentration of the inhibitor equaled the IC50 concentration. Substrate was added and the reaction was monitored for 30 minutes.
Target sequence in this assay (Q99685 whole entry): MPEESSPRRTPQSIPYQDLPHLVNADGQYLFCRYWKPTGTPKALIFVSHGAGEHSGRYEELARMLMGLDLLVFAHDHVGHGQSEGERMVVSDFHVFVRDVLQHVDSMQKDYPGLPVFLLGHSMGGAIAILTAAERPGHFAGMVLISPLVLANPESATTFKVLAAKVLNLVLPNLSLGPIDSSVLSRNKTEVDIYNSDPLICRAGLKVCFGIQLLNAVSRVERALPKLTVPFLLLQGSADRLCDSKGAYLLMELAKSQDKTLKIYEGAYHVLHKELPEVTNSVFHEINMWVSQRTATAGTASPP

[3] abbreviates: Method A: starting concentration of 100 μM.

human recombinant FAAH, sequence (O00519 whole entry): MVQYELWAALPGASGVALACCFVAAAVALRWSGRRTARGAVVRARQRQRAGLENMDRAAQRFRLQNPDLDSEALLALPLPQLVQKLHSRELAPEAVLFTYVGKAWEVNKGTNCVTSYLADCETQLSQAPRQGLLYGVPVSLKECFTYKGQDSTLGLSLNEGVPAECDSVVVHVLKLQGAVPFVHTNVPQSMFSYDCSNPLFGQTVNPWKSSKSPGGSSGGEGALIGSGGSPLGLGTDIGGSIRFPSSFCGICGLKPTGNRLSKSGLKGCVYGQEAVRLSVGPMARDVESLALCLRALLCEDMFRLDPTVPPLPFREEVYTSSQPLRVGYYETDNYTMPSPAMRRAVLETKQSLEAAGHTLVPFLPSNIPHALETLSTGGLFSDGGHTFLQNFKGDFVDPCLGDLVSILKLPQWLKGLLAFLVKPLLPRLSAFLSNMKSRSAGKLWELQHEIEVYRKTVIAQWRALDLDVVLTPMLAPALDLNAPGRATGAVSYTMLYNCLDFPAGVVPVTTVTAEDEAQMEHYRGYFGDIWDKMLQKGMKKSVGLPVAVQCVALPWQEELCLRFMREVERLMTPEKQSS

As for `Cc1ccccc1-n1nc(C2CC3(C2)CN(C(=O)c2cc(O)ccc2F)C3)cc1C` [Compound 117], the IC50 on human recombinant FAAH (setting [3]) was greater than 10 µM.

As for `Cc1cc(C2CC3(C2)CN(C(=O)c2ccccc2F)C3)n(-c2ccccc2C)n1` [Compound 122, (2-fluorophenyl)(6-(3-methyl-1-(o-tolyl)-1H-pyrazol-5-yl)-2-azaspiro[3.3]heptan-2-yl)methanone], the IC50 at human recombinant FAAH (setting [3]) was greater than 10 µM. Regarding `COc1ccc(F)c(C(=O)N2CC3(CC(c4cc(C)nn4-c4ccccc4C)C3)C2)c1` [Compound 123, (2-fluoro-5-methoxyphenyl)(6-(3-methyl-1-(o-tolyl)-1H-pyrazol-5-yl)-2-azaspiro[3.3]heptan-2-yl)methanone], the IC50 at human recombinant FAAH (setting [3]) and on human MAGL [1] (read-out: Potency (MAGL inhibition)) was greater than 10 µM in each case. `Cc1cc(C2CC3(C2)CN(C(=O)c2cccc(O)c2)C3)n(-c2ccccc2C)n1` [Compound 125, (3-hydroxyphenyl)(6-(3-methyl-1-(o-tolyl)-1H-pyrazol-5-yl)-2-azaspiro[3.3]heptan-2-yl)methanone]: the IC50 on human recombinant FAAH (setting [3]) was greater than 10 µM. As to `Cc1cc(C2CC3(C2)CN(C(=O)c2c(F)ccc(O)c2F)C3)n(-c2ccccc2C)n1` [Compound 127, (2,6-difluoro-3-hydroxyphenyl)(6-(3-methyl-1-(o-tolyl)-1H-pyrazol-5-yl)-2-azaspiro[3.3]heptan-2-yl)methanone], the IC50 on human recombinant FAAH (setting [3]) is greater than 10 µM.

For the compound `O=C(c1cc(O)ccc1F)N1CC2(CC(n3cc(C4CC4)c(-c4ccccc4F)n3)C2)C1` [Compound 493], the IC50 at human recombinant FAAH (Method B: starting concentration of 10 μM) is greater than 10 µM. Also, the “A: degree to which MAGL enzymatic activity returned following washout” value (“A: degree” for short) at human MAGL [2] was determined as 47. As to `Cc1cnn(C2CC3(C2)CN(C(=O)c2cc(O)ccc2F)C3)c1-c1cc(F)ccc1Cl` [Compound 519, {6-[5-(2-chloro-5-fluorophenyl)-4-methyl-1-pyrazolyl]-2-aza-2-spiro[3.3]heptyl}(2-fluoro-5-hydroxyphenyl) methanone], the “A: degree” value at human MAGL [2] stood at 155. As for `Cc1cn(C2CC3(C2)CN(C(=O)c2cc(O)ccc2F)C3)nc1-c1cc(F)ccc1Cl` [Compound 520, {6-[3-(2-chloro-5-fluorophenyl)-4-methyl-1-pyrazolyl]-2-aza-2-spiro[3.3]heptyl}(2-fluoro-5-hydroxyphenyl) methanone], the “A: degree” value at human MAGL [2] came to 100.

For `O=C(Oc1ccc([N+](=O)[O-])cc1)N1CCC(C(O)(c2ccc3c(c2)OCO3)c2ccc3c(c2)OCO3)CC1` [JZL-184, reference compound], the “A: degree” value at human MAGL [2] is “complete lack of return of MAGL enzymatic activity”. Moreover, at human MAGL [2] (relative to control, immediately following a 30 minute washout), the “B: % MAGL activity returning after washout” value is recorded as less than 1%. For “(2-fluoro-5-hydroxyphenyl) (6-(3-methyl-1-(o-tolyl)-1H-pyrazol-5-yl)-2-azaspiro[3.3]hept-5-en-2-yl) methanone [Compound 120]”, the IC50 on human recombinant FAAH (setting [3]) was greater than 10 µM; at human MAGL [1] (read-out: MAGL Potency (Detection Method)), 0.15 to 0.5 µM.
